The results in this text go back to publication PMC4327562, “Emergence of terpene cyclization in Artemisia annua” (Nature Communications, 2015).

The structures appear in SMILES notation.

In test [1] the target is T1, amorpha-4,11-diene synthase (ADS) (Artemisia annua, UniProt Q9AR04).
T1 construct: gene AMS1; recombinant
Nature of the test: GC-MS product analysis and malachite green assay. The format is biochemical. The conditions noted are these: 5 mM MgCl2, pH 7.0; numbering likely that of A. annua BFS.

Test [2] addresses T2, (E)-β-farnesene synthase (BFS), A. annua BFS (Artemisia annua, UniProt Q9FXY7, Y423L/V470G, form not given).
T2 construct: gene CASC125
The conditions noted are these: 5 mM MgCl2, pH 7.0, 30 °C, inorganic pyrophosphatase coupled. The text has this:
(§1) malachite green assay, steady-state kinetics on (E)-β-farnesene synthase (BFS), A. annua BFS

Test [3] has as its target T3, (E)-β-farnesene synthase (BFS), A. annua BFS (Artemisia annua, UniProt Q9FXY7, Y305L/Y433A, form not given).
T3 construct: gene CASC125
The conditions noted are these: 5 mM MgCl2, pH 7.0, 30 °C, inorganic pyrophosphatase coupled.
Description: as §1

Test [4] concerns the target T4, (E)-β-farnesene synthase (BFS), A. annua BFS (Artemisia annua, UniProt Q9FXY7).
T4 construct: gene CASC125
The conditions noted are these: 5 mM MgCl2, pH 7.0, 30 °C, inorganic pyrophosphatase coupled.
Description: as §1

Test [5] deals with T5, (E)-β-farnesene synthase (BFS), A. annua BFS (Artemisia annua, UniProt Q9FXY7, Y433A/V470G, form not given).
T5 construct: gene CASC125
The conditions noted are these: 5 mM MgCl2, pH 7.0, 30 °C, inorganic pyrophosphatase coupled.
Description: as §1

T3 sequence (Q9FXY7 whole entry Y305L/Y433A, form open): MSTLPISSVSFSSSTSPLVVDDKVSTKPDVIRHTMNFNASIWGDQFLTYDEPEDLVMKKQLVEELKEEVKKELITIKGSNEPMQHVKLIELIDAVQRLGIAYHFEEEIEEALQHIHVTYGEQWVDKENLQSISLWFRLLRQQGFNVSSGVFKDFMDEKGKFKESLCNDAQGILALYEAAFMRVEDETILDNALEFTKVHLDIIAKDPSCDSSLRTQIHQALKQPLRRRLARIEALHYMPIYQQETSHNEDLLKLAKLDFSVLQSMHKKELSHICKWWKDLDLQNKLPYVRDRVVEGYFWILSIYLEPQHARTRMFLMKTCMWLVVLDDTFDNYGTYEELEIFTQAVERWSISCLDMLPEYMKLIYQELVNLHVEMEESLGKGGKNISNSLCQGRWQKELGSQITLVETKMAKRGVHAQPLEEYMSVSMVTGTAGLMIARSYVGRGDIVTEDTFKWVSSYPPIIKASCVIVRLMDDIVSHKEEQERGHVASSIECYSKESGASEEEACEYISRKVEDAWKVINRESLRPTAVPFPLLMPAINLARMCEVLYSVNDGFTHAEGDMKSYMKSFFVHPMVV
T4 sequence (Q9FXY7 whole entry): as the sequence (Q9FXY7 whole entry Y305L/Y433A, form open) above, with L305Y, A433Y counted along it
T5 sequence (Q9FXY7 whole entry Y433A/V470G, form open): as the sequence (Q9FXY7 whole entry Y305L/Y433A, form open) above, with L305Y, V470G counted along it
T1 sequence (Q9AR04 whole entry): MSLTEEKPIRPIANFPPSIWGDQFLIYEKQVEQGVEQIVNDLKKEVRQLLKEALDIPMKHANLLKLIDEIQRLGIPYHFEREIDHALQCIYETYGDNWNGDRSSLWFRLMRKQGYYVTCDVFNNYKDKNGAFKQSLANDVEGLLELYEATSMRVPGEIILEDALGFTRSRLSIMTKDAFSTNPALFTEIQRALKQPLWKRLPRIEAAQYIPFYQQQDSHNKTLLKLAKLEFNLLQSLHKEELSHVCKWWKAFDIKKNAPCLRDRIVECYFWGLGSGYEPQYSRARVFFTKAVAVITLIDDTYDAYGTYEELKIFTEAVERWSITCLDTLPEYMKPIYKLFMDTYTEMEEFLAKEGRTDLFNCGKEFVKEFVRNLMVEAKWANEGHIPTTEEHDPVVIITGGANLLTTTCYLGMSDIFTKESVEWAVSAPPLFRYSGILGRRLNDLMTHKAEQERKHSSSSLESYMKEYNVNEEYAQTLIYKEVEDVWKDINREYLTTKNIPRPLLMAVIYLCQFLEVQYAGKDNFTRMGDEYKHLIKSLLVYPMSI
T2 sequence (Q9FXY7 whole entry Y423L/V470G, form open): as the sequence (Q9FXY7 whole entry Y305L/Y433A, form open) above, with L305Y, Y423L, A433Y, V470G counted along it

Regarding `CC(C)=CCC/C(C)=C/CC/C(C)=C/COP(=O)(O)OP(=O)(O)O` [FPP, farnesyl pyrophosphate], the “GC-MS product analysis and malachite green assay” value in test [1] is listed as “incorporating the L402Y mutation into ADS induced a broadening of cyclization products”.
On to `CC(C)=CCC/C(C)=C/CC/C(C)=C/CO[P@@](=O)(O)OP(=O)(O)O` (stereo in doubt) [FPP, farnesyl pyrophosphate], for which the Km in test [2] was found to be 5.99 µM; in test [3] it was 5.22 µM; in test [4], 10.6 µM; in test [5] it was 4.27 µM.
